Values after ≈ are worked out from the molar mass of the structure shown.
Columns and labels:
[1] = test system: S. aureus ATCC 6538; parameters: method as in PMID 25897586; conditions: S. a. ATCC 6538; compounds 1–5; cited from earlier work
[2] = test system: M. luteus ATCC 10240; parameters: method as in PMID 25897586; conditions: M. l. ATCC 10240; compounds 1–5; cited from earlier work
[3] = test system: B. subtilis ATCC 6633; parameters: method as in PMID 25897586; conditions: B. s. ATCC 6633; compounds 1–5; cited from earlier work
[4] = MTT cytotoxicity assay; type: cell-based, human; conditions: human, Hs27 foreskin fibroblast cells (ATCC CRL-1634), 25 µg/mL, 24 h, vehicle control = 100%
Experimental: (§1) A critical factor in research and development of new antibacterial agents is their abilities to selectively target bacterial cells without toxicity to mammalian cells. Thus, in order to test if antibacterial activity of title thiosemicarbazides is not due to their general toxicity, their effect on mammalian cell viability was assessed using human foreskin fibroblast Hs27 cells (CRL-1634) via MTT assay.
(§2) Cytotoxic properties of the compounds were evaluated using human foreskin fibroblast cells Hs27 (ATCC CRL-1634) (ATCC, Manassas, VA, USA) that were cultured in DMEM-high glucose (Sigma Aldrich, St. Louis, MO, USA). Medium was supplemented with 10% fetal bovine serum (FBS, Sigma Aldrich), 100 U/mL of penicillin, and […] of streptomycin (PenStrep, Sigma Aldrich, St. Louis, MO, USA). Cells were incubated at 37 °C in a humidified atmosphere of 5% CO2. Stock solutions of the tested compounds were prepared dissolving in a sterile dimethyl sulfoxide (DMSO) to the concentration of 50 mg/mL. The cells were seeded into 96-well sterile plates (Nunc) at a cell density of 1 × 10^5 cells/mL. After 24 h of incubation, the medium was removed from each well, and then cells were incubated for the next 24 h with tested compounds (in a fixed dose of 25 µg/mL) in DMEM-high glucose containing 2% FBS. Control cells were cultured only with medium containing 2% addition of FBS. Cytotoxicity of the compounds was evaluated using MTT assay, which is based on the conversion of 3-(4,5-dimethylthiazol-2-yl)-2,5- diphenyltetrazolium bromide (MTT) into dark-blue formazan crystals. Briefly, after 24-h incubation of cells with varying concentrations of the tested compounds, culture medium was removed from the plates. Cells were washed with PBS, and then 100 µL of medium containing 10% MTT solution (5 mg/mL) was added to each well. Cells were incubated for the next 3 h at 37 °C in an atmosphere of 5% CO2. Next, 100 µL (per well) of 10% sodium dodecyl sulfate (SDS) buffer solution was added to dissolve formazan crystals and after an overnight incubation the absorbance was measured at 570 nm using a microplate reader (Epoch, BioTek Instruments, Inc., Winooski, VT, USA).

[5] = test system: human foreskin fibroblast Hs27 cells (CRL-1634); experiment: MTT cytotoxicity assay; type: cell-based; conditions: Homo sapiens, 24 h of treatment
Experimental: as §1, §2

[6] = test system: MRSA-1; experiment: MIC, clinical isolate of S. aureus; type: cell-based; conditions: Staphylococcus aureus; clinical isolate MRSA-1; read-out: MIC
Experimental: (§3) The antibacterial activity of the thiosemicarbazides 1–9 and antibiotics (amoxicillin, gentamicin, levofloxacin, linezolid, and vancomycin) was tested on the Gram-positive strains (Microbiologics, St. Cloud, MN, USA) (S. aureus ATCC 25923, S. aureus ATCC 6538, S. epidermidis ATCC 12228, B. subtilis ATCC 6633, B. cereus ATCC 10876, M. luteus ATCC 10240), the Gram-negative strains (Microbiologics, St. Cloud, MN, USA) (E. coli ATCC 25922, K. pneumoniae ATCC 13883, P. mirabilis ATCC 12453, P. aeruginosa ATCC 9027), and clinical isolates of S. aureus (Medical University of Lublin, Lublin, Poland) (MSSA-1, MSSA-2, MSSA-3, MSSA-4, MRSA-1).

[7] = test system: MSSA-1; experiment: MIC, clinical isolate of S. aureus; type: cell-based; conditions: Staphylococcus aureus; clinical isolate MSSA-1; read-out: MIC
Experimental: as §3

[8] = test system: MSSA-4; experiment: MIC, clinical isolate of S. aureus; type: cell-based; conditions: Staphylococcus aureus; clinical isolate MSSA-4; read-out: MIC
Experimental: as §3

[9] = test system: MSSA-3; experiment: MIC, clinical isolate of S. aureus; type: cell-based; conditions: Staphylococcus aureus; clinical isolate MSSA-3; read-out: MIC
Experimental: as §3

[10] = test system: MSSA-2; experiment: MIC, clinical isolate of S. aureus; type: cell-based; conditions: Staphylococcus aureus; clinical isolate MSSA-2; read-out: MIC
Experimental: as §3

[11] = test system: S. aureus ATCC 25923; parameters: method as in PMID 25897586; conditions: S. a. ATCC 25923; compounds 1–5; cited from earlier work
[12] = test system: S. aureus ATCC 25923; experiment: Checkerboard broth dilution synergy assay; type: cell-based
Experimental: The microdilution checkerboard method was used to evaluate the synergistic effects between the thiosemicarbazides 1–9 and antibiotics, which were determined as the fractional inhibitory concentration indices (FICIs). For these experiments, amoxicillin, gentamicin, levofloxacin, linezolid, and vancomycin were selected to represent the five antimicrobial classes most commonly used in clinical practice. In this way, a total of 45 combinations of thiosemicarbazide-amoxicillin, thiosemicarbazide-gentamicin, thiosemicarbazide-levofloxacin, thiosemicarbazide-linezolid, and thiosemicarbazide-vancomycin against S. aureus ATCC 25923 were tested to identify in vitro synergy effects.
Interaction of the thiosemicarbazides 1–9 in combination with amoxicillin, gentamicin, levofloxacin, linezolid or vancomycin against S. aureus ATCC 25923 were analyzed using the checkerboard broth dilution method to determine the fractional inhibitory concentration indices (FICIs), calculated as: FIC = MIC of drug A in combination/MIC of drug A alone + MIC of drug B in combination/MIC of drug B alone. The calculated FICIs were interpreted as synergistic (FIC ≤ 0.5), additive (0.5 < FIC < 1), indifferent (1 ≤ FIC < 4.0), or antagonistic (FIC ≥ 4.0). The checkerboard assay included ciprofloxacin-carvedilol combination as positive control, whereas cefuroxime in combination with 4-(4-bromophenyl)-1-(3-fluorobezoyl)thiosemicarbazide served as negative control. The Z-factor value for the bioassay was 0.683.

[13] = test system: B. cereus ATCC 10876; parameters: method as in PMID 25897586; conditions: B. c. ATCC 10876; compounds 1–5; cited from earlier work
[14] = test system: S. epidermidis ATCC 12228; parameters: method as in PMID 25897586; conditions: S. e. ATCC 12228; compounds 1–5; cited from earlier work
[15] = target: T1, S. aureus topoisomerase IV (Staphylococcus aureus, UniProt P0C1S7+P0C1U9); experiment: Topoisomerase IV decatenation assay; type: biochemical; conditions: in words; 50 and 100 µM tested (Figures S1–S3)
T1 construct: purchased Inspiralis, Norwich, UK
Experimental: Inhibition of decatenation activity of S. aureus topoisomerase IV: The assay was performed using S. aureus topoisomerase IV decatenation kits (Inspiralis, Norwich, UK). Interlinked kDNA substrate (0.5 µg) was incubated with 1 unit of topoisomerase IV (Inspiralis, Norwich, UK), in the dedicated decatenation assay buffer supplied by the manufacturer, in the presence of varying concentrations of the test compounds. Reactions were carried out at 37 °C for 1 h and then terminated by the addition of equal volume of 2 × STOP Buffer and chloroform/iso-amyl alcohol. Samples were vortexed, centrifuged, and run through a 15 cm 1% agarose gel in TAE buffer for 1.5 h at 80 V. Gels were stained with ethidium bromide and visualized under UV light.

MIC [6] [µg/mL]	MIC [7] [µg/mL]	MIC [8] [µg/mL]	MIC [9] [µg/mL]	MIC [10] [µg/mL]	inhibitory action against topoisomerase IV [15]	Structure (SMILES)	MIC [1] [µg/mL]	MIC [2] [µg/mL]	MIC [3] [µg/mL]	viability at 24 h, 25 µg/mL [4] [%]	IC50 [5] [µg/mL]	MIC [11] [µg/mL]	interaction in combination ([12]; combination with amoxicillin)	interaction in combination ([12]; combination with gentamicin)	interaction in combination ([12]; combination with levofloxacin)	interaction in combination ([12]; combination with linezolid)	interaction in combination ([12]; combination with vancomycin)	MIC [13] [µg/mL]	MIC [14] [µg/mL]
125 (≈ 327 µM)	> 500	> 500	> 500	> 500	no inhibitory effects	Cc1ccccc1C(=O)NC(=S)NNC(=O)c1cccc(Cl)c1Cl [compound 1]	15.63 (≈ 40.9 µM)	1.95 (≈ 5.1 µM)	3.91 (≈ 10.2 µM)	78.5	> 25	15.63 (≈ 40.9 µM)	additive	no interactions	no interactions	additive	no interactions	3.91 (≈ 10.2 µM)	7.81 (≈ 20.4 µM)
125 (≈ 310 µM)	> 500	250 (≈ 621 µM)	> 500	> 500	no inhibitory effects	O=C(NC(=S)NNC(=O)c1cccc(Cl)c1Cl)c1ccccc1Cl [compound 3]	15.63 (≈ 38.8 µM)	0.98 (≈ 2.43 µM)	3.91 (≈ 9.71 µM)	81	> 25	15.63 (≈ 38.8 µM)	additively	additively	additively	additively	no interaction	3.91 (≈ 9.71 µM)	7.81 (≈ 19.4 µM)
> 500	> 500	500 (≈ 1240 µM)	> 500	> 500	–	O=C(NC(=S)NNC(=O)c1cccc(Cl)c1Cl)c1ccc(Cl)cc1 [compound 4]	15.63 (≈ 38.8 µM)	1.95 (≈ 4.84 µM)	0.98 (≈ 2.43 µM)	80.7	> 25	31.25 (≈ 77.6 µM)	additive	–	synergistic	additive	did not display any synergism nor additivity	3.91 (≈ 9.71 µM)	7.81 (≈ 19.4 µM)
250 (≈ 605 µM)	> 500	500 (≈ 1210 µM)	> 500	> 500	–	O=C(NC(=S)NNC(=O)c1cccc(Cl)c1Cl)c1ccc([N+](=O)[O-])cc1 [compound 5]	1.95 (≈ 4.72 µM)	0.49 (≈ 1.19 µM)	0.98 (≈ 2.37 µM)	70.9	> 25	1.95 (≈ 4.72 µM)	no interactions	no interactions	no interactions	synergistically	no interactions	0.98 (≈ 2.37 µM)	1.95 (≈ 4.72 µM)

— paper PMC7288171, “Synergistic Effects of Thiosemicarbazides with Clinical Drugs against S. aureus” (Molecules, 2020)
